IC50, MIC and inhibition data for ten compounds are collected here from ChEMBL document CHEMBL5107956, “Natural products from mangrove sediments-derived microbes: Structural diversity, bioactivities, biosynthesis, and total synthesis” (Eur J Med Chem, 2022).

The term MIC denotes the least concentration at which growth counts as inhibited. For orientation: inhibition means the change of the read-out against control, counted positive when it falls.

The subject of test [1] is Pseudopestalotiopsis theae. Put plainly: Antifungal activity Pestalotiopsis theae assessed as fungal growth inhibition per disc measured after 7 days by paper disc dilution method. Format: functional, organism-based.
The next test concerns Vibrio harveyi. In words: Antibacterial activity against Vibrio harveyi assessed as cell growth inhibition. Format: functional.
A further test relates to Vibrio anguillarum. Put plainly: Antibacterial activity against Vibrio anguillarum assessed as cell growth inhibition. The class given is functional.
The subject of a further test is Aeromonas hydrophila. In words: Antibacterial activity against Aeromonas hydrophila assessed as cell growth inhibition. Format: functional.
The test system of a further test is HepG2. Put plainly: Cytotoxicity against human HepG2 cells assessed as cell growth inhibition by MTT assay. The class given is functional, cell-based. A general note: Tetrazolium dyes change colour on reduction, which living cells bring about.
Another test deals with HEp-2. In words: Cytotoxicity against human HEp-2 cells assessed as cell growth inhibition by MTT assay. Format: functional, cell-based.
Another test relates to Staphylococcus aureus. Put plainly: Antibacterial activity against Staphylococcus aureus ATCC 25923 assessed as bacterial growth inhibition. Format: functional, organism-based.
The test system of the next test is Vibrio splendidus. Put plainly: Antibacterial activity against Vibrio splendidus as bacterial growth inhibition. The class given is functional, organism-based.
The target of test [2] is Prostaglandin G/H synthase 2 (Homo sapiens) (UniProt P35354). In words: Inhibition of COX2 (unknown origin) at 20 nM relative to control.
The subject of the next test is Plasmodium falciparum. Put plainly: Antiplasmodial activity against Plasmodium falciparum 3D7 infected in human erythrocyte assessed as intraerythrocytic growth inhibition measured after 24 hrs by alamar blue staining based analysis. The class given is functional, organism-based. Particulars: 3D7, Erythrocyte. For orientation: Resazurin is reduced to fluorescent resorufin, in cell work by metabolically active cells.

The test system of a further test is Leishmania donovani. Put plainly: Antileishmanial activity against Leishmania donovani D10 promastigotes assessed as parasite growth inhibition incubated for 24 hrs by alamar blue staining based analysis. Format: functional, organism-based. Particulars: D10, 24 h.
Test [3] has as its system Trypanosoma brucei brucei. Put plainly: Antitrypanosomal activity against Trypanosoma brucei brucei GUTat3.1 assessed as parasite growth inhibition measured after 24 hrs by alamar blue staining based analysis. Format: functional, organism-based. Particulars: GUTat3.1, 24 h.
For the next test, the system named is Leishmania major. Put plainly: Antileishmanial activity against Leishmania major NR48815 promastigotes assessed as parasite growth inhibition incubated for 24 hrs by alamar blue staining based analysis. The class given is functional, organism-based. To be noted: NR48815, 24 h.
For the next test, the system named is HepG2 2.2.15. In words: Antiproliferative activity against human HepG2.2.15 cells assessed as cell growth inhibition by MTT assay. Format: functional, cell-based.
For a further test, the system named is JeKo-1. Put plainly: Cytotoxicity against human JeKo-1 cells assessed as cell growth inhibition by MTT assay. Format: functional, cell-based.
The nature of test [4]: Antioxidant activity assessed as free radical scavenging activity by DPPH assay. The class given is functional.
A further test relates to Rhizoctonia solani. Put plainly: Antifungal activity against Rhizoctonia solani assessed as inhibition of fungal growth at 10 ug/ml relative to control. Format: functional.
Test [5] can be described thus: Antioxidant activity assessed as DPPH radical scavenging activity incubated for 30 mins under dark condition. The class given is functional. On the technique in general: Loss of DPPH colour is used to gauge radical scavenging.

≈ marks a conversion by molar mass, not a printed value.

Sequence of Prostaglandin G/H synthase 2 (Homo sapiens) (P35354 whole entry, looked up): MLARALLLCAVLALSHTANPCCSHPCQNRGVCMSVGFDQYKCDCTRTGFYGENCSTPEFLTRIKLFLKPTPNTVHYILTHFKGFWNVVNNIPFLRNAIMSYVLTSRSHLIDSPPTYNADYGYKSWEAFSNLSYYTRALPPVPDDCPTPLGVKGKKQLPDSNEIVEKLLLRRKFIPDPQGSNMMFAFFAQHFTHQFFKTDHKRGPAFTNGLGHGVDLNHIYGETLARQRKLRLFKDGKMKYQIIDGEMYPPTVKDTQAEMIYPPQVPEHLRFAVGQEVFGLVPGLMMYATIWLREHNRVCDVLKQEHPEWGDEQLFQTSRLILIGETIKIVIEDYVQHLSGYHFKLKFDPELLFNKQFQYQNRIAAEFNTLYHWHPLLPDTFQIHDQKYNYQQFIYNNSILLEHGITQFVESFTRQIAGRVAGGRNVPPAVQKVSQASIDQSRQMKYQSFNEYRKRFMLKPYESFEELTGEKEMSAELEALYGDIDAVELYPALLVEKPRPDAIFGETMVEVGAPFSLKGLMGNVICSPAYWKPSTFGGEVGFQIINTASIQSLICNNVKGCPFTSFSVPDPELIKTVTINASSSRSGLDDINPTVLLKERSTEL

As to `COC(=O)/C=C/C1=CC(=O)CC1O` (stereo not drawn), the IC50 in test [1] amounted to 125 µg.

With `C[C@H](O)/C=C1/C(=O)O[C@H]([C@@H](C)O)[C@@H]1O`, the MIC in the test on Vibrio harveyi, in the test on Vibrio anguillarum and with Aeromonas hydrophila was 8 mg/L (≈ 39.6 µM) throughout.

As for `COC(=O)c1cc(O)cc2oc3cc(C)c(O)cc3c(=O)c12`, the IC50 stood at 9 mg/L (≈ 30 µM) in the test on HepG2 and 8 mg/L (≈ 26.6 µM) in the test with HEp-2.

`CC(C)=CCc1cc(C[C@@]2(C(=O)O)OC(=O)C(OC(C)(C)[C@@H](O)Cc3cc(C[C@@]4(C(=O)O)OC(=O)C(O)=C4c4ccc(O)cc4)ccc3O)=C2c2ccc(O)cc2)ccc1O`: the figures for the IC50 in the test on Staphylococcus aureus and with Vibrio splendidus were 1.3 µM and 3.7 µM, respectively. This compound showed an inhibition in test [2] of 76.5%.

Regarding `Cc1c(C)[n+](CCC(C)C)c(-c2n(CCc3ccccc3)c(C)c(C)[n+]2CCC(C)C)n1CCc1ccccc1`, the IC50 amounted to 9.08 µM in the test with Plasmodium falciparum, 0.75 µM in the test on Leishmania donovani, 0.78 µM in test [3] and 7.02 µM in the test with Leishmania major.

Take `C[C@@H](O)Cc1cc(O)c2c(c1)C(=O)c1c(O)c(O)cc(O)c1C2=O`: in the test on HepG2 2.2.15, the IC50 was found to be 4.63 µM.

Take `CC1=CCC[C@@]2(C)C=C3OC(=O)C(CO)=C3C[C@H]12`: in the test with JeKo-1, the IC50 stood at 8.4 µM.

In the case of `COc1cc(O)cc(C2OC(=O)c3c(O)cc(C)c(O)c32)c1O` (stereo not drawn), in test [4], the IC50 was found to be 1.23 mg/L (≈ 3.86 µM).

As to `Cc1oc2cc3cc(O)cc(O)c3c(O)c2c(=O)c1C`, the inhibition at 10 µg/mL in the test on Rhizoctonia solani is 50.2%.

On to `COc1c(O)c2c(c(O)c1CO)C(=O)OCC2`, for which the IC50 in test [5] was determined as 25.7 µM.
